{"source": "patent US20090326007A1", "about": "“Compounds and methods for modulating sir2 protein activity” (priority 2007, published 2009)", "key": {"[1]": {"target": "T1, Hst2 (Saccharomyces cerevisiae, UniProt P53686)", "T1 sequence (P53686 1-294)": "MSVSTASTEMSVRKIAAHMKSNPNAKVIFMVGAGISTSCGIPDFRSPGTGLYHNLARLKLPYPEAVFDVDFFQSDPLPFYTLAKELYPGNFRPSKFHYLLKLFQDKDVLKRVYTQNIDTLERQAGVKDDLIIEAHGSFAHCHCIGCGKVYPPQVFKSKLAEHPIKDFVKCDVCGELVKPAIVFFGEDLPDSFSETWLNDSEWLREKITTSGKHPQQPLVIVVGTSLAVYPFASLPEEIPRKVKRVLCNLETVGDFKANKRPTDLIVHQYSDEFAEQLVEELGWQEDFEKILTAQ", "experiment": "SAR analysis, fluorigenic assay at 50 and 500 μM", "format": "biochemical", "settings": "for inhibition of the Hst2 deacetylase reaction by metal ions (in words): FIG. 2, 50 μM and 500 μM compound", "from_the_text": "Structure Activity Relationship (SAR) Analysis."}, "[2]": {"target": "T1, Hst2", "experiment": "IC50 determination, fluorigenic deacetylase assay, Hst2", "method": "(§1) IC50 Determination. […] The dose-response curves were then fit to one-site competition or sigmoidal-dose response curves as appropriate in [sequence] PRISM (GraphPad Software, La Jolla, Calif.) and the IC50 was determined. Three independent IC50 measurements were performed for each compound and the average and standard deviation are reported.\nThe resulting deacetylase activity for the three experiments was averaged and reported as a percentage relative to control wells containing no inhibitor."}, "[3]": {"target": "T2, full-length human SIRT1 (Homo sapiens, UniProt Q96EB6)", "T2 sequence (Q96EB6 1-747)": "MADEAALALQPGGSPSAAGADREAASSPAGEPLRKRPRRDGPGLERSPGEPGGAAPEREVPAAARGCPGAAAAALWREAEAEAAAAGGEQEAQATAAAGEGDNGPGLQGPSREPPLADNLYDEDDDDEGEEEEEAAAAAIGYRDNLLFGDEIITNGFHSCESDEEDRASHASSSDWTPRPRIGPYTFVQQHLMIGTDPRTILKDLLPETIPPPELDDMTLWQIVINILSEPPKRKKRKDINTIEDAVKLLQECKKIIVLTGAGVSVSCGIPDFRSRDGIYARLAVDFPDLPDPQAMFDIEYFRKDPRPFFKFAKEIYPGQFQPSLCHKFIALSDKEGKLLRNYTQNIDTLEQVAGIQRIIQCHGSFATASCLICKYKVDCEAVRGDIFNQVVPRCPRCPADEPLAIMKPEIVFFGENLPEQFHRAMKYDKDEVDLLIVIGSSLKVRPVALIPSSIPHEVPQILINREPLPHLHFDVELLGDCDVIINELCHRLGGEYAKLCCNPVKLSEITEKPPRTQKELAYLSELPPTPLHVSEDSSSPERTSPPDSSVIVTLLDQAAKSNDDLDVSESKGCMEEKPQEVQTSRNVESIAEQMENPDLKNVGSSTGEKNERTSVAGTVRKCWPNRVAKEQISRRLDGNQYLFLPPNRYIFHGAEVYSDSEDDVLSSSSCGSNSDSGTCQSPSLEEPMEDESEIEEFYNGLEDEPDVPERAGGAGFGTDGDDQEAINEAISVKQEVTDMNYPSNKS", "experiment": "IC50 determination, fluorigenic deacetylase assay, FL SIRT1", "method": "Cells were harvested and lysed by sonication in buffer containing 50 mM Tris, pH 7.5, 200 mM NaCl, 5 mM imidizole, 10 mM β-mercaptoethanol (BME) and 0.1 mg/mL PMSF. Soluble FL SIRT1 was purified by Ni-NTA (Qiagen, Valencia, Calif.) in a buffer containing 50 mM Tris, pH 7.5, 300 mM NaCl, 10 mM BME, 5% glycerol and 30-600 mM imidizole followed by SUPERDEX-200 gel filtration in buffer containing 50 mM Tris, pH 7.5, 150 mM NaCl, and 10 mM BME. FL SIRT1 eluted between the 670 kDa and 158 kDa globular protein standards. Since SIRT1 is known to aggregate after several days at 4° C., the protein was aliquoted and frozen at −80° C. for use in fluorigenic assays.\nas §1"}, "[4]": {"target": "T1, Hst2", "experiment": "Competition assay (inhibition mode versus NAD+ and acetyl-lysine substrate)", "format": "biochemical", "experimental": "Competition Assay. […] The fluorigenic assay described above was used with a fixed enzyme concentration of 1 μM. When competition with NAD^+ was being tested, the FLUOR DE LYS-SIRT1 deacetylase substrate was held at a constant concentration of 100 μM and the NAD^+ was titrated from ⅓-5× KmNAD+ (5-80 μM). […] The inhibitors were titrated from ˜½-several times their estimated Ki as indicated. The reaction time was 15 minutes, and each condition was tested in duplicate. The Km, kcat and kcat/Km values were determined by direct fit of the data in SIGMAPLOT (Systat Software, Point Richmond, Calif.) to the Michealis-Menten equation. The Ki and Kis (the slope and intercept inhibition constants, respectively) and the competition type were also determined by a direct fit in SIGMAPLOT to both partial and full competitive, noncompetitive, uncompetitive and mixed competition models. Best-fit models were determined by several statistical methods including R^2, AICs and Sy.x as well as empirical evaluation of α and β values.\nTo determine the mechanism of inhibition of the compounds identified by HTS and to gain insight as to where these compounds may bind to the enzyme, inhibition modes were determined by varying each of the substrates with the other maintained at a fixed, saturating concentration (Table 11)."}, "[5]": {"target": "T3, human SIRT2 (Homo sapiens, UniProt Q8IXJ6)", "T3 sequence (Q8IXJ6 1-352 isoform Q8IXJ6-2)": "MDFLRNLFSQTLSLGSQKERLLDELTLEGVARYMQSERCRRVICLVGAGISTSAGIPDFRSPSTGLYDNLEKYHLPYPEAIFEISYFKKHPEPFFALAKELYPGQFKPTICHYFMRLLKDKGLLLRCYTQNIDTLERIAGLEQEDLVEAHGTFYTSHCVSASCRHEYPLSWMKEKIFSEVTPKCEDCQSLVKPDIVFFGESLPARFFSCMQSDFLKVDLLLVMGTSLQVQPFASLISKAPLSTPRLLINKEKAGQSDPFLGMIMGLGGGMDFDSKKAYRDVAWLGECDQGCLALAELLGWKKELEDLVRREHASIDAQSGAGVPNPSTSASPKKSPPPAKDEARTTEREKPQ", "experiment": "Inhibition assay against human SIRT2 (fluorigenic)", "settings": "for inhibitory activity against human SIRT2 (in words): 50 or 100 μM compound; for remaining activity at 50 µM: read-out: percent of residual enzyme activity, SIRT2", "method": "(§2) Human recombinant SIRT3 was purchased from Enzo Life Sciences.\n(§3) Inhibition Assay Against Human SIRT2 and SIRT3. […] Two independent measurements were performed for each compound and the average and standard deviation are reported."}, "[6]": {"target": "T4, human SIRT3 (Homo sapiens, UniProt Q9NTG7)", "T4 sequence (Q9NTG7 1-399)": "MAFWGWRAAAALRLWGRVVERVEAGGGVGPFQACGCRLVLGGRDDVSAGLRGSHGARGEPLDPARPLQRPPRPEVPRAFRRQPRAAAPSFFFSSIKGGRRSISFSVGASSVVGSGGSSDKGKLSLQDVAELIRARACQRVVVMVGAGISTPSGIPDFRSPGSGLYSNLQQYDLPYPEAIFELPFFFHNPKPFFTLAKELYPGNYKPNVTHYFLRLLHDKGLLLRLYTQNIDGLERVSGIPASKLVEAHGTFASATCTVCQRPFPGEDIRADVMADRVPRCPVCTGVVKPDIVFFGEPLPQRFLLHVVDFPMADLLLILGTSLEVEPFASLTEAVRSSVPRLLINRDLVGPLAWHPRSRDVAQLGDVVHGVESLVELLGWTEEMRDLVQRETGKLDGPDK", "experiment": "Inhibition assay against human SIRT3 (fluorigenic)", "settings": "for remaining activity at 50 µM: read-out: percent of residual enzyme activity, SIRT3", "method": "as §2, §3"}, "[7]": {"settings": "substrate NAD+ varied, acetyl-lysine substrate 100 μM"}, "[8]": {"settings": "substrate acetyl-lysine varied, NAD+ 160 μM"}, "[9]": {"settings": "read-out: SIRT1 IC50, Table 5, 240 μM NAD+, 200 μM substrate, 1 μM FL SIRT1, 15 min"}, "[10]": {"settings": "substrate NAD+ varied, read-out: Ki"}, "[11]": {"settings": "substrate acetyl-lysine varied, read-out: Ki"}}, "note": "Entries after “also recorded” stand apart in the source; their conditions may differ. Read-outs that look alike come from different tables or passages of the source.", "data": [{"smiles": "[Ca+2]", "note": "[Ca^2+]", "values": [{"measurement": "inhibition of the Hst2 deacetylase reaction by metal ions (in words)", "setting": "[1]", "result": "are not"}]}, {"smiles": "O=c1[nH]c(=S)[nH]c(-c2ccccc2)c1Cc1c(O)ccc2ccccc12", "note": "[Cambinol (4), Cambinol, reference compound]", "values": [{"measurement": "IC50", "setting": "[2]", "result": "> 1000", "unit": "µM"}]}, {"smiles": "[Cd+2]", "note": "[Cd^2+]", "values": [{"measurement": "inhibition of the Hst2 deacetylase reaction by metal ions (in words)", "setting": "[1]", "result": "inhibitors"}]}, {"smiles": "[Co+2]", "note": "[Co^2+]", "values": [{"measurement": "inhibition of the Hst2 deacetylase reaction by metal ions (in words)", "setting": "[1]", "result": "inhibitors"}]}, {"smiles": "CC(=O)[O][Cd][O]C(C)=O", "note": "[Compound 11a, cadmium acetate]", "values": [{"measurement": "IC50", "setting": "[2]", "result": "1 ± 0.2", "unit": "µM"}, {"measurement": "IC50 values (range in words)", "setting": "[2]; Table 5", "result": "sub-micromolar"}]}, {"smiles": "S=c1ccccn1[O][Zn][O]n1ccccc1=S", "note": "[Compound 11b, zinc pyrithione]", "values": [{"measurement": "IC50", "setting": "[2]", "result": "0.65 ± 0.05", "unit": "µM"}, {"measurement": "IC50 values (range in words)", "setting": "[2]", "result": "sub-micromolar"}, {"measurement": "IC50", "setting": "[3]", "result": "2.7 ± 0.2", "unit": "µM"}, {"measurement": "Ki", "setting": "[4]; Ki, substrate NAD+ varied", "result": "0.26 ± 0.08", "unit": "µM"}, {"measurement": "Ki", "setting": "[4]; Ki, substrate acetyl-lysine varied", "result": "0.7 ± 0.1", "unit": "µM"}, {"measurement": "kcat", "setting": "[4]; substrate NAD+ varied", "result": "0.87 ± 0.05", "unit": "min⁻¹"}, {"measurement": "Inhibition Mechanism", "setting": "[4]; [7]", "result": "fully mixed"}, {"measurement": "kcat", "setting": "[4]; substrate acetyl-lysine varied", "result": "1.3 ± 0.2", "unit": "min⁻¹"}, {"measurement": "Inhibition Mechanism", "setting": "[4]; [8]", "result": "fully non-competitive; also recorded: NC (full)"}, {"measurement": "α (mixed inhibition model)", "setting": "[4]; with respect to NAD+", "result": 2.2}]}, {"smiles": "CCc1ccc(OCCCC(=O)Oc2ccc3c(c2)oc(=O)c2ccccc23)cc1", "note": "[Compound 12a, 4-(4-Ethyl-phenoxy)-butyric acid 6-oxo-6H-benzo[c]chromen-3-yl ester]", "values": [{"measurement": "IC50 values (range in words)", "setting": "[2]; Table 5", "result": "low micromolar"}, {"measurement": "IC50", "setting": "[2]; read-out: Hst2 IC50, Table 5, 160 μM NAD+, 100 μM substrate, 1 μM Hst2, 15 min", "result": "6.5 ± 1.3", "unit": "µM"}, {"measurement": "IC50", "setting": "[3]; [9]", "result": "6 ± 0.4", "unit": "µM"}, {"measurement": "activity at 50 µM", "setting": "[1]; Table 8, 50 μM compound, relative to control", "result": "< 1", "unit": "%"}, {"measurement": "activity at 500 µM", "setting": "[1]; Table 8, 500 μM compound, relative to control, read-out: % Activity 500", "result": "< 1", "unit": "%"}, {"measurement": "kcat", "setting": "[4]; substrate NAD+ varied", "result": "1.5 ± 0.3", "unit": "min⁻¹"}, {"measurement": "Inhibition Mechanism", "setting": "[4]; [7]", "result": "fully non-competitive; also recorded: NC (full)"}, {"measurement": "Ki", "setting": "[4]; [10]", "result": "1.2 ± 0.2", "unit": "µM"}, {"measurement": "kcat", "setting": "[4]; substrate acetyl-lysine varied", "result": "0.98 ± 0.04", "unit": "min⁻¹"}, {"measurement": "Inhibition Mechanism", "setting": "[4]; [8]", "result": "partial non-competitive"}, {"measurement": "Ki", "setting": "[4]; [11]", "result": "6.3 ± 1.7", "unit": "µM"}, {"measurement": "inhibitory activity against human SIRT2 (in words)", "setting": "[5]", "result": "potent inhibitor"}, {"measurement": "remaining activity at 50 µM", "setting": "[5]", "result": "2.4 ± 0.3", "unit": "%"}, {"measurement": "remaining activity at 50 µM", "setting": "[6]", "result": "89 ± 3.3", "unit": "%"}]}, {"smiles": "O=C(O)CCN1Cc2ccccc2C1=O", "note": "[Compound 13a, 3-(1-Oxo-1,3-dihydro-isoindol-2-yl)-propionic acid]", "values": [{"measurement": "IC50 values (range in words)", "setting": "[2]; Table 5", "result": "low micromolar"}, {"measurement": "IC50", "setting": "[3]; [9]", "result": "80 ± 5", "unit": "µM"}, {"measurement": "kcat", "setting": "[4]; substrate NAD+ varied", "result": "0.73 ± 0.13", "unit": "min⁻¹"}, {"measurement": "Inhibition Mechanism", "setting": "[4]; [7]", "result": "fully non-competitive; also recorded: NC (full)"}, {"measurement": "Ki", "setting": "[4]; [10]", "result": "30 ± 6", "unit": "µM"}, {"measurement": "kcat", "setting": "[4]; substrate acetyl-lysine varied", "result": "1.0 ± 0.1", "unit": "min⁻¹"}, {"measurement": "Inhibition Mechanism", "setting": "[4]; [8]", "result": "fully non-competitive; also recorded: NC (full)"}, {"measurement": "Ki", "setting": "[4]; [11]", "result": "39 ± 7", "unit": "µM"}, {"measurement": "inhibitory activity against human SIRT2 (in words)", "setting": "[5]", "result": "only weak inhibitory activity"}, {"measurement": "remaining activity at 50 µM", "setting": "[5]", "result": "89 ± 1.8", "unit": "%"}, {"measurement": "inhibitory activity against human SIRT3 (in words)", "setting": "[6]; 50 or 100 μM compound", "result": "only weak inhibitory activity"}, {"measurement": "remaining activity at 50 µM", "setting": "[6]", "result": "91 ± 4.3", "unit": "%"}]}, {"smiles": "C[S+]([O-])CCC(C(=O)O)N1C(=O)c2ccccc2C1=O", "note": "(stereo not drawn) [Compound 0032]", "values": [{"measurement": "IC50", "setting": "[2]; Table 10, Hst2", "result": "No Inh."}]}, {"smiles": "CC(C)C(=O)CCN1C(=O)c2ccccc2C1=O", "note": "[Compound 04265]", "values": [{"measurement": "IC50", "setting": "[2]; Table 10, Hst2", "result": "No Inh."}]}, {"smiles": "O=C(O)CCN1C(=O)c2cc(Cl)c(Cl)cc2C1=O", "note": "[Compound 39008]", "values": [{"measurement": "IC50", "setting": "[2]; Table 10, Hst2", "result": "No Inh."}]}, {"smiles": "Nc1ccc2c(c1)C(=O)N(CCC(=O)O)C2", "note": "[Compound 42071]", "values": [{"measurement": "IC50", "setting": "[2]; Table 10, Hst2", "result": "No Inh."}]}, {"smiles": "O=C(O)CCN1C(=O)c2ccc(-c3nc4ccccc4c(=O)o3)cc2C1=O", "note": "[Compound 47054]", "values": [{"measurement": "IC50", "setting": "[2]; Table 10, Hst2", "result": "No Inh."}]}, {"smiles": "O=C1c2ccccc2C(=O)N1CCBr", "note": "[Compound 91032]", "values": [{"measurement": "IC50", "setting": "[2]; Table 10, Hst2", "result": "No Inh."}]}]}
